Test results taken from PubChem BioAssay AID288 (DTP/NCI, 2004).
Inconclusive results are not listed.

Tested on: BDF1 mice, M5076 sarcoma s.c., survival/tumor T/C
Assay: NCI In Vivo Anticancer Drug Screen. Data for tumor model Sarcoma M5076 (subcutaneous) in B6D2F1 (BDF1) mice
Protocol: The antitumor activity of compounds was measured in mice bearing transplantable tumors. Survival or tumor size were measured and the results are expressed as the measurement made in the treated group (T) divided by the measurement made in the vehicle treated control group (C). The tumor model used in this assay is Sarcoma M5076 (subcutaneous) in B6D2F1 (BDF1) mice

## Cc1ccc(C(=O)N=Nc2c(Cl)c(O)c3ccccc3c2O)cc1
endpoint: median survival time, dose: 12.5 mg/kg/injection, schedule: Q01DX009 (ip), vehicle: saline with Tween-80, higher = longer survival
  T/C: 113 % of control
endpoint: median survival time, dose: 25.0 mg/kg/injection, schedule: Q01DX009 (ip), vehicle: saline with Tween-80, higher = longer survival
  T/C: 110 % of control
endpoint: median survival time, dose: 50.0 mg/kg/injection, schedule: Q01DX009 (ip), vehicle: saline with Tween-80, higher = longer survival
  T/C: 89 % of control
endpoint: median tumor weight (est.), dose: 12.5 mg/kg/injection, schedule: Q01DX009 (ip), vehicle: saline with Tween-80, higher = larger tumour
  T/C: 62 % of control
endpoint: median tumor weight (est.), dose: 25.0 mg/kg/injection, schedule: Q01DX009 (ip), vehicle: saline with Tween-80, higher = larger tumour
  T/C: 120 % of control
endpoint: median tumor weight (est.), dose: 50.0 mg/kg/injection, schedule: Q01DX009 (ip), vehicle: saline with Tween-80, higher = larger tumour
  T/C: 80 % of control
endpoint: median tumor weight (est.), dose: 100.0 mg/kg/injection, schedule: Q01DX009 (ip), vehicle: saline with Tween-80, higher = larger tumour
  T/C: 88 % of control

## Nc1nc(=S)c2[nH]cnc2[nH]1
endpoint: mean tumor weight, dose: 0.5 mg/kg/injection, schedule: Q02DX011 (ip), vehicle: Klucel (hydroxypropylcellulose) (HPC), higher = larger tumour
  T/C: 58 % of control
endpoint: mean tumor weight, dose: 1.0 mg/kg/injection, schedule: Q02DX011 (ip), vehicle: Klucel (hydroxypropylcellulose) (HPC), higher = larger tumour
  T/C: 16 % of control
endpoint: mean tumor weight, dose: 2.0 mg/kg/injection, schedule: Q02DX011 (ip), vehicle: Klucel (hydroxypropylcellulose) (HPC), higher = larger tumour
  T/C: 3 % of control

## O=C1c2ccccc2C(=O)c2c(NCCNCCO)ccc(NCCNCCO)c21
endpoint: median survival time, dose: 7.78 mg/kg/injection, schedule: Q04DX004 (ip), vehicle: saline, higher = longer survival
  T/C: 100 % of control
endpoint: median survival time, dose: 7.78 mg/kg/injection, schedule: Q04DX004 (iv), vehicle: saline, higher = longer survival
  T/C: 102 % of control
endpoint: median survival time, dose: 13.0 mg/kg/injection, schedule: Q04DX004 (ip), vehicle: saline, higher = longer survival
  T/C: 96 % of control
endpoint: median survival time, dose: 13.0 mg/kg/injection, schedule: Q04DX004 (iv), vehicle: saline, higher = longer survival
  T/C: 88 % of control
endpoint: median survival time, dose: 21.6 mg/kg/injection, schedule: Q04DX004 (ip), vehicle: saline, higher = longer survival
  T/C: 90 % of control
endpoint: median survival time, dose: 21.6 mg/kg/injection, schedule: Q04DX004 (iv), vehicle: saline, higher = longer survival
  T/C: 100 % of control
endpoint: median survival time, dose: 36.0 mg/kg/injection, schedule: Q04DX004 (ip), vehicle: saline, higher = longer survival
  T/C: 103 % of control

## NC1=NC(O)C=C1 (stereo not drawn)
endpoint: median survival time, dose: 5.0 mg/kg/injection, schedule: Q01DX009 (ip), vehicle: saline, higher = longer survival
  T/C: 103 % of control
endpoint: median survival time, dose: 10.0 mg/kg/injection, schedule: Q01DX009 (ip), vehicle: saline, higher = longer survival
  T/C: 96 % of control
endpoint: median survival time, dose: 20.0 mg/kg/injection, schedule: Q01DX009 (ip), vehicle: saline, higher = longer survival
  T/C: 94 % of control
endpoint: median survival time, dose: 40.0 mg/kg/injection, schedule: Q01DX009 (ip), vehicle: saline, higher = longer survival
  T/C: 96 % of control
endpoint: median survival time, dose: 80.0 mg/kg/injection, schedule: Q01DX009 (ip), vehicle: saline, higher = longer survival
  T/C: 103 % of control
endpoint: median tumor weight (est.), dose: 5.0 mg/kg/injection, schedule: Q01DX009 (ip), vehicle: saline, higher = larger tumour
  T/C: 115 % of control
endpoint: median tumor weight (est.), dose: 10.0 mg/kg/injection, schedule: Q01DX009 (ip), vehicle: saline, higher = larger tumour
  T/C: 63 % of control
endpoint: median tumor weight (est.), dose: 20.0 mg/kg/injection, schedule: Q01DX009 (ip), vehicle: saline, higher = larger tumour
  T/C: 169 % of control
endpoint: median tumor weight (est.), dose: 40.0 mg/kg/injection, schedule: Q01DX009 (ip), vehicle: saline, higher = larger tumour
  T/C: 96 % of control
endpoint: median tumor weight (est.), dose: 80.0 mg/kg/injection, schedule: Q01DX009 (ip), vehicle: saline, higher = larger tumour
  T/C: 68 % of control

## COc1cccc2c1C(=O)c1c(O)c3c(c(O)c1C2=O)C[C@@](O)(C(=O)CO)C[C@@H]3OC1CC(N)C(O)C(C)O1 (stereo partly drawn)
endpoint: mean tumor weight, dose: 1.0 mg/kg/injection, schedule: Q02DX011 (ip), vehicle: saline, higher = larger tumour
  T/C: 81 % of control
endpoint: mean tumor weight, dose: 2.0 mg/kg/injection, schedule: Q02DX011 (ip), vehicle: saline, higher = larger tumour
  T/C: 39 % of control
endpoint: median survival time, dose: 0.25 mg/kg/injection, schedule: Q02DX009 (iv), vehicle: saline, higher = longer survival
  T/C: 97 % of control
endpoint: median survival time, dose: 0.5 mg/kg/injection, schedule: Q02DX009 (iv), vehicle: saline, higher = longer survival
  T/C: 94 % of control
endpoint: median survival time, dose: 0.5 mg/kg/injection, schedule: Q04DX009 (ip), vehicle: saline, higher = longer survival
  T/C: 114 % of control
endpoint: median survival time, dose: 1.0 mg/kg/injection, schedule: Q02DX009 (iv), vehicle: saline, higher = longer survival
  T/C: 100 % of control
endpoint: median survival time, dose: 1.0 mg/kg/injection, schedule: Q02DX011 (ip), vehicle: water, higher = longer survival
  T/C: 100 % of control
endpoint: median survival time, dose: 1.0 mg/kg/injection, schedule: Q04DX009 (ip), vehicle: saline, higher = longer survival
  T/C: 111 % of control
endpoint: median survival time, dose: 1.3 mg/kg/injection, schedule: Q04DX004 (iv), vehicle: saline, higher = longer survival
  T/C: 100 % of control
endpoint: median survival time, dose: 2.0 mg/kg/injection, schedule: Q02DX009 (iv), vehicle: saline, higher = longer survival
  T/C: 97 % of control
endpoint: median survival time, dose: 2.0 mg/kg/injection, schedule: Q02DX011 (ip), vehicle: water, higher = longer survival
  T/C: 94 % of control
endpoint: median survival time, dose: 2.0 mg/kg/injection, schedule: Q04DX009 (ip), vehicle: saline, higher = longer survival
  T/C: 111 % of control
endpoint: median survival time, dose: 2.16 mg/kg/injection, schedule: Q04DX004 (ip), vehicle: saline, higher = longer survival
  T/C: 90 % of control
endpoint: median survival time, dose: 2.16 mg/kg/injection, schedule: Q04DX004 (iv), vehicle: saline, higher = longer survival
  T/C: 112 % of control
endpoint: median survival time, dose: 3.0 mg/kg/injection, schedule: Q02DX011 (ip), vehicle: water, higher = longer survival
  T/C: 96 % of control
endpoint: median survival time, dose: 3.0 mg/kg/injection, schedule: Q04DX003 (iv), vehicle: saline, higher = longer survival
  T/C: 108 % of control
endpoint: median survival time, dose: 3.6 mg/kg/injection, schedule: Q04DX004 (ip), vehicle: saline, higher = longer survival
  T/C: 103 % of control
endpoint: median survival time, dose: 3.6 mg/kg/injection, schedule: Q04DX004 (iv), vehicle: saline, higher = longer survival
  T/C: 93 % of control
endpoint: median survival time, dose: 4.0 mg/kg/injection, schedule: Q02DX011 (ip), vehicle: water, higher = longer survival
  T/C: 38 % of control
endpoint: median survival time, dose: 4.0 mg/kg/injection, schedule: Q04DX009 (ip), vehicle: saline, higher = longer survival
  T/C: 108 % of control
endpoint: median survival time, dose: 4.5 mg/kg/injection, schedule: Q04DX003 (iv), vehicle: saline, higher = longer survival
  T/C: 124 % of control
endpoint: median tumor weight (est.), dose: 1.0 mg/kg/injection, schedule: Q02DX011 (ip), vehicle: saline, higher = larger tumour
  T/C: 76 % of control
endpoint: median tumor weight (est.), dose: 2.0 mg/kg/injection, schedule: Q02DX011 (ip), vehicle: saline, higher = larger tumour
  T/C: 26 % of control

## Cc1nc(N)nc(N)c1-c1ccc(Cl)c(Cl)c1
endpoint: median survival time, dose: 1.5 mg/kg/injection, schedule: Q01DX009 (ip), vehicle: normal media, higher = longer survival
  T/C: 105 % of control

## COc1ccc(Cl)[n+]([O-])n1
endpoint: median survival time, dose: 50.0 mg/kg/injection, schedule: Q04DX003 (ip), vehicle: Klucel (hydroxypropylcellulose) (HPC), higher = longer survival
  T/C: 100 % of control
endpoint: median survival time, dose: 100.0 mg/kg/injection, schedule: Q04DX003 (ip), vehicle: Klucel (hydroxypropylcellulose) (HPC), higher = longer survival
  T/C: 100 % of control
